In paper PMC9231138, “Dihydrotanshinone I Enhances Cell Adhesion and Inhibits Cell Migration in Osteosarcoma U−2 OS Cells through CD44 and Chemokine Signaling” (Molecules, 2022):
Where two headings read alike, the source gives them in different places.

Assays:
U−2 OS cells = assay: MTT cell proliferation assay, U−2 OS cells; type: cell-based; settings: Homo sapiens, U2OS
Description: (§1) The effects of tanshinones (DS−1 to DS−5) on the proliferation of U−2 OS cells, HeLa cells, and NRK−49F cells were measured by the classical MTT method with minor modifications as follows. Cells were seeded at 5000 per well in 96-well plates, with each group being repeated in 5 wells, and were incubated for 12 h. DS−1 to DS−5 were added at gradient concentrations, then incubated for 24 and 48 h, respectively. Then, 20 μL MTT solution (solved in PBS, 5 mg/mL) was added to every well, and the cells were further incubated at 37 °C for 4 h until a purple precipitate was visible. The plate was centrifuged at 1000 rpm for 1 min; the supernatant was suctioned, and 150 μL of DMSO was added per well; the plate was shaken on a shaker protected from light for 15 min. We placed the plate in an enzyme marker and measured the absorbance values at a 490 nm wavelength.

cyclin D1 = assay: RT-PCR cyclin D1 mRNA in U−2 OS cells; type: cell-based, human; settings: 24 h
Description: (§2) Total RNA within cells was extracted by the RNAeasy™ Animal Long RNA Isolation Kit with Spin Column (Shanghai, Beyotime); the concentrations and OD260/OD280 and OD230/OD260 values were measured by NanoDrop. Five micrograms of RNA was used for reverse transcription; each sample was diluted to 16 μL, and 4 μL of synthesized premix solution (5×) was added, then the mixtures were placed in a 42 °C water bath for 10 min, then an 80 °C water bath for 10 min to deactivate reverse transcriptase. After reverse transcription, each sample was diluted to 140 μL. PCR amplification was carried out by the ABI700 real-time PCR system, and the amplification reaction was detected with a SYBR probe. After PCR, actin and GAPDH were used as internal references, and the relative standard curve method (2^−ΔΔcT) determined the relative expression of mRNA.

CD44 = assay: RNA-seq transcriptome, CD44 expression; type: cell-based, human; settings: DS−1 6.25 µM, 24 h
Description: Sample preparation: U−2 OS cells were seeded in a 10 cm culture dish, and we cultured them to the logarithmic growth phase, suctioned the previous medium, and added new medium with DS−1 at 0 and 6.25 μM; each group was repeated two times. After 24 h of culture, the dish was washed with PBS reagent 3 times. One milliliter of TRIzol reagent was added to every dish for cell lysate and then collected in centrifuge tubes.
Transcriptome sequencing and analysis were carried out by Novogene Bioinformatics Technology Co., Ltd. (Beijing, China).
Raw data in the fastq format were firstly processed through in-house Perl scripts. In this step, clean data were obtained by removing reads containing adapter or containing ploy-N and low-quality reads from raw data. […]
Reference genome and gene model annotation files were downloaded from the genome website directly. The index of the reference genome was built using Hisat2 v2.0.5 (https://github.com/DaehwanKimLab/hisat2, accessed on 4 May 2022), and paired-end clean reads were aligned to the reference genome using Hisat2 v2.0.5. FeatureCounts v1.5.0-p3 (https://github.com/byee4/featureCounts, accessed on 4 May 2022) was used to count the reads numbers mapped to each gene. Then the Fragments PerKilobase of transcript sequence per Millions […] (FPKMs) of each gene were calculated based on the length of the gene and reads’ count mapped to this gene. […]

HeLa cells = assay: MTT cell proliferation assay, HeLa cells; type: cell-based; settings: Homo sapiens, 24 h, read-out: IC50 HeLa cells (24 h)
Description: as §1

snail = assay: RT-PCR snail mRNA in U−2 OS cells; type: cell-based, human; settings: 24 h
Description: as §2

[1] = test system: U−2 OS cells transfected with CD44 siRNA; assay: Trypsin digestion time, CD44 siRNA knockdown U−2 OS cells; type: cell-based, human; settings: DS−1 7.5 μM for 24 h, 25 °C, control about 120 s
Description: Figure 8 CD44 knockdown reduced cell adhesion by shortening cell protrusions. (A) U−2 OS cells transfected with CD44 siRNA and no siRNA were seeded into a 24-well plate treated with 7.5 μM DS−1 for 24 h, and the expression of CD44 was detected by immunofluorescence. (B) CD44 expression of U−2 OS cells was detected by Western blotting after being treated with siRNA for 0, 24, and 36 h. (C) U−2 OS cells were first transfected with/without CD44 siRNA and then treated with DS−1 for 24 h, and its actin morphologies were detected. The representative magnified actin morphologies are listed in (D). (E) The lengths of protrusions in (C) were analyzed by Image J and are shown in a scatterplot graph. The lengths of 20 protrusions from actin in (C) were calculated. Each value is the average of 20 lengths of protrusions, ** p < 0.01, *** p < 0.005. (F) U−2 OS cells were transfected with CD44 siRNA, then treated with 0 and 7.5 μM DS−1 for 24 h and digested with trypsin at 25 °C; the digestion time was recorded by a microscope, and photos were taken every 30 s. The percentage of digested cells is recorded in (G).
Small interfering RNA (siRNA) oligonucleotide was synthesized by Sunya Biotechnology Co., Ltd (Hangzhou, China). The siRNA sequences were as follows: sense (5′–3′), UAUUCCACGUGGAGAAAAAtt; antisense (5′–3′), UUUUUCUCCACGUGGAAUAca. […]

In the case of `Cc1cccc2c3c(ccc12)C1=C(C(=O)C3=O)[C@@H](C)CO1` [DS−1, 15,16-Dihydrotanshinone I], the IC50 (U−2 OS cells; 24 h, read-out: IC50 U−2 OS cells (24 h)) is reported as 3.83 ± 0.49 µM, the IC50 (U−2 OS cells; 48 h, read-out: IC50 U−2 OS cells (48 h)) is reported as 1.99 ± 0.37 µM and the “cyclin D1 mRNA, fold of the control group” value (shortened to “cyclin D1 mRNA, fold”) (cyclin D1; first of three DS−1 doses (2.5 µM per Fig. 5 legend)) is reported as 0.27 ± 0.06 fold. The “cyclin D1 mRNA, fold” value (cyclin D1; second of three DS−1 doses (5.0 µM per Fig. 5 legend)) was 0.29 ± 0.06 fold, the “cyclin D1 mRNA, fold” value (cyclin D1; third of three DS−1 doses (7.5 µM per Fig. 5 legend)) was 0.20 ± 0.04 fold and the “upregulation of CD44 in transcriptome” value (CD44) was 2.94 ± 0.55 fold. For the same compound, the IC50 (HeLa cells) was 15.5 ± 0.98 µM, the “snail mRNA, fold of the control group” value (snail; DS−1 5.0 µM) was 0.46 ± 0.05 fold and the “snail mRNA, fold of the control group” value (snail; DS−1 7.5 µM) was 0.39 ± 0.03 fold. The “time to total trypsin digestion” value [1] was ≤ 150 s.
